Laboratory results from US9757383B2, “Cyclohexylamine derivatives having β2 adrenergic agonist and M3 muscarinic antagonist activities” (ALMIRALL, S.A., priority 2011, dated 2017).

Tests used:
[1] = biological target: human adrenergic beta2 receptor (Homo sapiens (Human), UniProt P07550); assay: Human adrenergic β2 receptor binding assay (3H-CGP12177, Sf9 cell membranes); conditions: 0.6 nM 3H-CGP12177, membranes from Sf9 cells
Protocol: Test 1: Human Adrenergic β1 and β2 Receptor Binding Assays
The study of binding to human adrenergic beta1 and beta2 receptors was performed using commercial membranes prepared from Sf9 cells where they are overexpressed (Perkin Elmer). The membrane suspensions (16 μg/well for beta1 and 5 μg/well for beta2) in assay buffer (75 mM Tris/HCl with 12.5 mM MgCl2 and 2 mM EDTA pH=7.4) were incubated with 0.14 or 0.6 nM of 3H-CGP12177 (Amersham) for beta 1 and beta 2 receptors respectively in a final volume of 250 μl, in GFC Multiscreen 96 well plates (Millipore) previously treated with assay buffer containing 0.3% PEI (Sigma). Non specific binding was measured in the presence of 1 μM propanolol. Incubation was maintained for 60 minutes at room temperature and with gentle shaking. The binding reactions were terminated by filtration and washing with 2.5 volumes of Tris/HCl 50 mM pH=7.4. The affinity of each test compound to the receptor was determined by using ten different concentrations ran in duplicate. IC50s were calculated using Activity Base software from IDBS and the four parameters-log equation.

[2] = biological target: human muscarinic M3 receptor (Homo sapiens (Human), UniProt P20309); assay: Human muscarinic M3 receptor binding assay ([3H]-NMS, CHO-K1 cell membranes); conditions: 1 nM [3H]-NMS, membranes from CHO-K1 cells
Chain of human muscarinic M3 receptor (P20309 whole entry): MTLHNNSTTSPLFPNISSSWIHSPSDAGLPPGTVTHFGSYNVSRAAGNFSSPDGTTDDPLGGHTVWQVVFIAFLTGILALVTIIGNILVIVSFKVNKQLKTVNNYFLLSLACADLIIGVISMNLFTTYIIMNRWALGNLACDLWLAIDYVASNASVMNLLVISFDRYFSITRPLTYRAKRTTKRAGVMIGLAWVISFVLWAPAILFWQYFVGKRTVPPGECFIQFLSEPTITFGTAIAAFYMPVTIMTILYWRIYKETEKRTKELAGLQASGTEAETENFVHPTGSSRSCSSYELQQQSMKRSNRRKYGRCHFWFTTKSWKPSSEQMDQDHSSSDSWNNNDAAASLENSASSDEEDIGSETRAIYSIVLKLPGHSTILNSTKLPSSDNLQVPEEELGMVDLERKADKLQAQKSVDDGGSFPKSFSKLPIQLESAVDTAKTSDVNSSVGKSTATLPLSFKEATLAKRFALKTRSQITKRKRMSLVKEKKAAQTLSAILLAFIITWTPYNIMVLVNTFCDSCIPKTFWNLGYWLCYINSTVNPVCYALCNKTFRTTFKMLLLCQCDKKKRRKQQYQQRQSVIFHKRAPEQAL
Protocol: Test 2: Human Muscarinic M1, M2, M3, M4 and M5 Receptors Binding Assays
The study of binding to human muscarinic M1, M2, M3, M4 and M5 receptors was performed using commercial membranes (Perkin Elmer) prepared from CHO-K1 cells. Radioligand binding experiments were conducted in 96 polypropylene well plates in a total volume of 200 μl. All reagents were dissolved in assay binding buffer (PBS with calcium and magnesium, SIGMA), except compounds that were dissolved in DMSO 100%. Non-specific binding (NSB) was measured in the presence of 1 μM atropine. [3H]-NMS was used as the radioligand at a concentration of 1 nM for M2, M3 and M5 and 0.3 nM for M1 and M4. […]
After an incubation period of two hours with gentle shaking, 150 μl of the reaction mix were transferred to 96 GF/C filter plates (Millipore), previously treated with wash buffer (Tris 50 mM; NaCl 100 mM; pH: 7.4), containing 0.05% PEI (Sigma) during one hour. […] After drying 30 min, 30 μl of OPTIPHASE Supermix were added to each well and radioactivity quantified using a Microbeta microplate scintillation counter.
The affinity of each test compound to the receptors was determined by using ten different concentrations ran in duplicate. IC50s were calculated using Activity Base software from IDBS and the four parameters-log equation.

| Compound | IC50 [1] | IC50 [2] |
| --- | --- | --- |
| CN(CCCn1c(=O)[nH]c2cc(CNC[C@H](O)c3ccc(O)c4[nH]c(=O)ccc34)ccc21)[C@H]1CC[C@H](OC(=O)C(O)(c2cccs2)c2cccs2)CC1 (relative stereo) [Example 2, trans-4-[{3-[5-({[(2R)-2-hydroxy-2-(8-hydroxy-2-oxo-1,2-dihydroquinolin-5-yl)ethyl]amino}methyl)-2-oxo-2,3-dihydro-H-benzimidazol-1-yl]propyl}(methyl)amino]cyclohexyl hydroxy(di-2-thienyl)acetate dihydrofluoride] | 120 nM | 0.4 nM |
| trans-4-{[2-({2-[4-(2-{[(2R)-2-hydroxy-2-(8-hydroxy-2-oxo-1,2-dihydroquinolin-5-yl)ethyl]amino}propyl)phenoxy]acetyl}amino)ethyl]amino}cyclohexyl hydroxy(di-2-thienyl)acetate dihydrofluoride [Example 20] | 3.1 nM | 3.6 nM |
